In US12559496B2, “Imidazopyrimidines as modulators of IL-17” (Janssen Pharmaceutica NV, priority 2020, dated 2026):

What was measured:
[1] = target: IL-17A(FLAG-Tagged): IL-17RA(His-Tagged) (Homo sapiens, UniProt Q16552, K93Q); assay: IL-17A(FLAG-Tagged): IL-17RA(His-Tagged) Binding Disruption Eu-HTRF Assay; details: disruption of IL-17A/IL-17RA binding; simple average if tested more than once
Source text: IL-17A(FLAG-Tagged): IL-17RA(His-Tagged) Binding Disruption Eu-HTRF Assay
An antibody directed against the FLAG tag of IL-17A (SEQ ID NO: 1) is labeled with the HTRF donor chromophore (Europium-cryptate). IL-17A is present as a dimer that is “locked into” this quaternary structure due to the formation of loop-spanning […] disulfide bridges. The construct of IL-17RA used in the assay excludes the […] portion of the receptor and is fused to a C-terminal 10×His tag (SEQ ID NO:2). An antibody directed against the His tag of the IL-17RA chimera is labeled with the HTRF acceptor chromophore (“D2”). The fluorescence-resonance energy transfer (FRET) depends on the vicinity of the donor chromophore to the acceptor, and interruption of the binding between the IL-17A and IL-17RA causes the reduction/loss of FRET. Therefore, this assay allows to evaluate the compound effect on the binding IL-17A and IL-17RA by monitoring the fluorescence intensity of donor vs acceptor. The assay is run as described below.
40 nL of 2-fold serial diluted compound solution for total 22 dilution points is added into each well of a 1536-well, white, low-volume, non-binding plate (Greiner #782904), then 2 μL of FLAG tagged IL-17A at 2× final concentration (2.5 nM) in solution of PBS+0.01% Triton-X100 is added to each well. The assay plate is briefly centrifuged then incubated for 1 h at rt. A mixed solution is prepared containing 2×5 nM 10HIS×IL-17RA, 2×2.5 nM Eu-anti-FLAG (CISBIO), 2×5 nM D2-anti-HIS (CISBIO) in PBS+0.01% Triton-X100+200 mM Potassium Fluoride (Sigma 60238) and 2 μL of mix is added to each well of the assay plate. The plate is briefly centrifuged then incubated for 2 h at rt. The HTRF intensities at the wavelength of donor (620 nm) and acceptor (665 nm) are measured using BMG Pherastar. The ratio between intensities at two wavelengths is calculated and plotted against the compound concentration and the data is fitted to a one-site competition model to yield IC50 of the compound.

[2] = system: IL-17A-induced G-CSF production in human normal keratinocytes (NHK); assay: NHK Assay: IL-17A-induced G-CSF production in human normal keratinocytes; assay type: cell-based; details: IL-17A 5 ng/mL, 24 h, 5% FBS, simple average if tested more than once
Description: IL-17A acts directly on keratinocytes through binding to dimeric receptor IL-17RA/RC and drives the production of a number of inflammatory mediators known to be elevated in psoriasis lesional tissue. IL-17A small molecule inhibitors that block the IL-17A to interact with IL-17R would inhibit the IL-17A signaling in its targeted cells such as keratinocytes. The compound functional activity is evaluated for its impact on IL-17A-induced G-CSF production in human normal keratinocytes (NHK).
Adult normal human keratinocytes are cultured in keratinocyte growth medium (Lonza) in a flask till reaching ˜ 90% confluence, then cells are transferred to a 384-well plate at density of 3000-4000 cell/well. Recombinant human IL-17A (Gibco PHC9174) is pre-incubated with titrated compound or DMSO for 1 h at rt then added to the cell culture plate. The final concentration of IL-17A is 5 ng/mL and DMSO is 0.2%, in the culture containing 5% FBS. Cells are cultured/treated for 24 h at 37° C. Supernatants are collected and G-CSF production is measured through HTRF technology using Human G-CSF Kit (CisBio). G-CSF concentration was extrapolated from the standard curve and IC50 is determined using GraphPad Prism. Cell viability is also evaluated using CellTiter-Glo kit (Promega) and effect of compound on cell viability is compared to DMSO control.

Chain of UniProt Q16552 (Q16552 with tags, fused parts or gaps K93Q): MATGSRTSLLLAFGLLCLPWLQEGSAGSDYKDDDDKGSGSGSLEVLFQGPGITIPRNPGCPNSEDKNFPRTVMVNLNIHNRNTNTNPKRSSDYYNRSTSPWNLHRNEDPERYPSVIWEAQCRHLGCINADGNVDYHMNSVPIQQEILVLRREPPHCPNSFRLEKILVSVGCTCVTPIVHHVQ

Row | SMILES | IC50 [1] [nM] | IC50 [2] [nM] | IC50 ([2]; Homo sapiens, Keratinocyte) [nM]
1 | Cn1nccc1C(=O)N[C@H](c1cn2ccc(C(NC(=O)CCC(F)(F)F)C3CC3)nc2n1)C1CCC(F)(F)CC1 (single isomer, unassigned) [Example 44, N—((S)-(7-((S*)-Cyclopropyl(4,4,4-trifluorobutanamido)methyl)imidazo[1,2-a]pyrimidin-2-yl)(4,4-difluorocyclohexyl)methyl)-1-methyl-1H-pyrazole-5-carboxamide] | 220 | 170 | –
2 | Cn1nccc1C(=O)N[C@H](c1cn2ccc(C(NC(=O)CCC(F)(F)F)C3CC3)nc2n1)C1CCC(F)(F)CC1 (single isomer, unassigned) [Example 45, N—((S)-(7-((R*)-Cyclopropyl(4,4,4-trifluorobutanamido)methyl)imidazo[1,2-a]pyrimidin-2-yl)(4,4-difluorocyclohexyl)methyl)-1-methyl-1H-pyrazole-5-carboxamide] | 2900 | 2100 | –
3 | CC(C)n1nccc1C(=O)N[C@H](c1cn2ccc(C(NC(=O)CCC(F)(F)F)C3CC3)nc2n1)C1CCC(F)(F)CC1 (single isomer, unassigned) [Example 46, N—((S)-(7-((S*)-Cyclopropyl(4,4,4-trifluorobutanamido)methyl)imidazo[1,2-a]pyrimidin-2-yl)(4,4-difluorocyclohexyl)methyl)-1-isopropyl-1H-pyrazole-5-carboxamide] | 2600 | 2600 | –
4 | CC(C)n1nccc1C(=O)N[C@H](c1cn2ccc(C(NC(=O)CCC(F)(F)F)C3CC3)nc2n1)C1CCC(F)(F)CC1 (single isomer, unassigned) [Example 47, N—((S)-(7-((R*)-Cyclopropyl(4,4,4-trifluorobutanamido)methyl)imidazo[1,2-a]pyrimidin-2-yl)(4,4-difluorocyclohexyl)methyl)-1-isopropyl-1H-pyrazole-5-carboxamide] | 410 | 120 | –
5 | O=C(CCC(F)(F)F)NC(c1ccn2cc([C@@H](NC(=O)c3cnn(CCC(F)(F)F)c3)C3CCC(F)(F)CC3)nc2n1)C1CC1 (single isomer, unassigned) [Example 49, N—((S)-(7-((S*)-Cyclopropyl(4,4,4-trifluorobutanamido)methyl)imidazo[1,2-a]pyrimidin-2-yl)(4,4-difluorocyclohexyl)methyl)-1-(3,3,3-trifluoropropyl)-1H-pyrazole-4-carboxamide] | 500 | – | 740
6 | Cc1nonc1C(=O)N[C@H](c1cn2ccc([C@H](NC(=O)CC3CC3(F)F)C3CC3)nc2n1)C1CCC(F)(F)CC1 (single isomer, unassigned) [Example 51, N—((S)-(7-((R)-Cyclopropyl(2-((S*)-2,2-difluorocyclopropyl)acetamido)methyl)imidazo[1,2-a]pyrimidin-2-yl)(4,4-difluorocyclohexyl)methyl)-4-methyl-1,2,5-oxadiazole-3-carboxamide] | 360 | – | 2000
7 | Cc1nonc1C(=O)N[C@H](c1cn2ccc([C@H](NC(=O)CC3CC3(F)F)C3CC3)nc2n1)C1CCC(F)(F)CC1 (single isomer, unassigned) [Example 52, N—((S)-(7-((R)-Cyclopropyl(2-((R*)-2,2-difluorocyclopropyl)acetamido)methyl)imidazo[1,2-a]pyrimidin-2-yl)(4,4-difluorocyclohexyl)methyl)-4-methyl-1,2,5-oxadiazole-3-carboxamide] | 680 | 2800 | –
8 | Cc1conc1C(=O)N[C@H](c1cn2ccc([C@H](NC(=O)CC3CC3(F)F)C3CC3)nc2n1)C1CCC(F)(F)CC1 (single isomer, unassigned) [Example 53, N—((S)-(7-((R)-Cyclopropyl(2-((S*)-2,2-difluorocyclopropyl)acetamido)methyl)imidazo[1,2-a]pyrimidin-2-yl)(4,4-difluorocyclohexyl)methyl)-4-methylisoxazole-3-carboxamide] | 490 | – | 2300
9 | Cc1conc1C(=O)N[C@H](c1cn2ccc([C@H](NC(=O)CC3CC3(F)F)C3CC3)nc2n1)C1CCC(F)(F)CC1 (single isomer, unassigned) [Example 54, N—((S)-(7-((R)-Cyclopropyl(2-((R*)-2,2-difluorocyclopropyl)acetamido)methyl)imidazo[1,2-a]pyrimidin-2-yl)(4,4-difluorocyclohexyl)methyl)-4-methylisoxazole-3-carboxamide] | 460 | 4500 | –
10 | O=C(CC1CC1(F)F)N[C@@H](c1ccn2cc([C@@H](NC(=O)c3ncnn3CC3CC3)C3CCC(F)(F)CC3)nc2n1)C1CC1 (single isomer, unassigned) [Example 55, N—((S)-(7-((R)-Cyclopropyl(2-((S*)-2,2-difluorocyclopropyl)acetamido)methyl)imidazo[1,2-a]pyrimidin-2-yl)(4,4-difluorocyclohexyl)methyl)-1-(cyclopropylmethyl)-1H-1,2,4-triazole-5-carboxamide] | 570 | – | 1100
11 | O=C(CC1CC1(F)F)N[C@@H](c1ccn2cc([C@@H](NC(=O)c3ncnn3CC3CC3)C3CCC(F)(F)CC3)nc2n1)C1CC1 (single isomer, unassigned) [Example 56, N—((S)-(7-((R)-Cyclopropyl(2-((R*)-2,2-difluorocyclopropyl)acetamido)methyl)imidazo[1,2-a]pyrimidin-2-yl)(4,4-difluorocyclohexyl)methyl)-1-(cyclopropylmethyl)-1H-1,2,4-triazole-5-carboxamide] | 730 | 1800 | –
12 | O=C(CC1CC1(F)F)N[C@@H](c1ccn2cc([C@@H](NC(=O)c3conc3C(F)(F)F)C3CCC(F)(F)CC3)nc2n1)C1CC1 (single isomer, unassigned) [Example 57, N—((S)-(7-((R)-Cyclopropyl(2-((S*)-2,2-difluorocyclopropyl)acetamido)methyl)imidazo[1,2-a]pyrimidin-2-yl)(4,4-difluorocyclohexyl)methyl)-3-(trifluoromethyl)isoxazole-4-carboxamide] | 220 | 930 | –
13 | O=C(CC1CC1(F)F)N[C@@H](c1ccn2cc([C@@H](NC(=O)c3conc3C(F)(F)F)C3CCC(F)(F)CC3)nc2n1)C1CC1 (single isomer, unassigned) [Example 58, N—((S)-(7-((R)-Cyclopropyl(2-((R*)-2,2-difluorocyclopropyl)acetamido)methyl)imidazo[1,2-a]pyrimidin-2-yl)(4,4-difluorocyclohexyl)methyl)-3-(trifluoromethyl)isoxazole-4-carboxamide] | 340 | 2200 | –
14 | O=C(CCC(F)(F)F)NC(c1ccn2cc([C@@H](NC(=O)c3cnn(CCC(F)(F)F)c3)C3CCC(F)(F)CC3)nc2n1)C1CC1 (stereo in doubt) [Example 50, N—((S)-(7-((R*)-Cyclopropyl(4,4,4-trifluorobutanamido)methyl)imidazo[1,2-a]pyrimidin-2-yl)(4,4-difluorocyclohexyl)methyl)-1-(3,3,3-trifluoropropyl)-1H-pyrazole-4-carboxamide] | 6800 | – | > 20000
15 | CC(C)n1ncnc1C(=O)N[C@H](c1cn2ccc([C@H](NC(=O)CC3CC(F)(F)C3)C3CC3)nc2n1)C1CCC(F)(F)CC1 [Example 13, N—((S)-(7-((R)-Cyclopropyl(2-(3,3-difluorocyclobutyl)acetamido)methyl)imidazo[1,2-a]pyrimidin-2-yl)(4,4-difluorocyclohexyl)methyl)-1-isopropyl-1H-1,2,4-triazole-5-carboxamide] | 340 | – | 500
